# According to article PMC4498228, “Biotransformation of Endocrine-Disrupting Compounds in Groundwater: Bisphenol A, Nonylphenol, Ethynylestradiol and Triclosan by a Laccase Cocktail from Pycnoporus sanguineus CS43” (Water, Air, and Soil Pollution, 2015):
# Where two headings read alike, the source gives them in different places.
# Test system: T1, laccase cocktail (LacI/LacII) from Pycnoporus sanguineus CS43
# T1 construct: gene Lac I; native secreted enzymes
# Assay: transformation rates at varied EDC concentration, Michaelis-Menten fit (HPLC-UV)
# Type: biochemical, Trametes sanguinea
# Details: free laccase cocktail (two isoforms), 100 U/L, pH 5 McIlvaine buffer, 25 °C, no mediator, read-out: Catalytic parameters / K m /
# Excerpt: transformation rates at varied EDC concentration, Michaelis-Menten fit (HPLC-UV) on laccase cocktail (LacI/LacII) from Pycnoporus sanguineus CS43
Structure (SMILES),Km (called Kapp in the text),Km (apparent Km)
"CC(C)(c1ccc(O)cc1)c1ccc(O)cc1 [BPA, bisphenol A]",482 µM,–
"C#C[C@]1(O)CC[C@H]2[C@@H]3CCc4cc(O)ccc4[C@H]3CC[C@@]21C [EE2, 17-α-ethynylestradiol]",–,32 µM
"CCCCCCCCCc1ccc(O)cc1 [NP, 4-nonylphenol]",–,73.6 µM
"Oc1cc(Cl)ccc1Oc1ccc(Cl)cc1Cl [TCS, triclosan]",–,302 µM
